The values below come from ChEMBL document CHEMBL4265889, “Design and synthesis of tetrahydropyridopyrimidine based Toll-Like Receptor (TLR) 7/8 dual agonists” (Bioorg Med Chem Lett, 2018).

Data set [1] addresses T1, Toll-like receptor 8 (Homo sapiens) (UniProt Q9NR97).
T1 sequence (whole entry): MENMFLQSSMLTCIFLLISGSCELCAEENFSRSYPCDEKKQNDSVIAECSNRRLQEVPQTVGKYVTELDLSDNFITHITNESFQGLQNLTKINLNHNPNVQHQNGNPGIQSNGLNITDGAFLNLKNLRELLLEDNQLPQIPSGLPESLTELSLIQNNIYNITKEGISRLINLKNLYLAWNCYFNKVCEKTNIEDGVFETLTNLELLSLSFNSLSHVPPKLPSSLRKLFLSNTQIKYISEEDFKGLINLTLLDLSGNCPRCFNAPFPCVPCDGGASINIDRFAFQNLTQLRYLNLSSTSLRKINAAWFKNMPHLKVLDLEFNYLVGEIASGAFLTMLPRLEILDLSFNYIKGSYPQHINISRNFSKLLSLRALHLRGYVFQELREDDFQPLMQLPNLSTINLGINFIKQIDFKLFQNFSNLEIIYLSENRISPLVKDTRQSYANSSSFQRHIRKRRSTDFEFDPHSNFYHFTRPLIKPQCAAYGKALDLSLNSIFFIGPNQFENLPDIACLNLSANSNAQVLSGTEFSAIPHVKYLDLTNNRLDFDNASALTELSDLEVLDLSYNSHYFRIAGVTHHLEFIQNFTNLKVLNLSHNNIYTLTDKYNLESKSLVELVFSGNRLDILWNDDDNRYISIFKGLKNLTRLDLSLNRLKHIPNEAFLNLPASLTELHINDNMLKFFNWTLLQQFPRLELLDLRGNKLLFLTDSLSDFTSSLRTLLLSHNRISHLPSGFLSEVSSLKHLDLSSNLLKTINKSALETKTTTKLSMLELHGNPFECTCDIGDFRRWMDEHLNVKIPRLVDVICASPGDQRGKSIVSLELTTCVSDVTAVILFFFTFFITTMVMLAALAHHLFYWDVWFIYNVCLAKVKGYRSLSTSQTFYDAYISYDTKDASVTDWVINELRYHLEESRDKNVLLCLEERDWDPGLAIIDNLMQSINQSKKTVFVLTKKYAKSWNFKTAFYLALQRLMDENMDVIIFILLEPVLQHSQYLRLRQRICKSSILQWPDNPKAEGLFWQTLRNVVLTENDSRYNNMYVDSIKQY
The experiment in a line: Agonist activity at human TLR8 expressed in HEK293 cells after 6 hrs by NFkappaB-luciferase reporter gene assay. It is filed as cell-based.

The nature of data set [2]: Drug metabolism in mouse liver microsomes at 1 uM after 15 mins. It counts as ADME, microsome. To be noted: read-out: Drug metabolism. For orientation: Microsomes from liver hold many membrane-bound enzymes, among them those of drug oxidation.
The nature of data set [3]: Drug metabolism in human liver microsomes at 1 uM after 15 mins. It counts as ADME, microsome. To be noted: read-out: Drug metabolism.
Data set [4] in a line: Cytotoxicity against HEK293 cells transfected with the CMV-TLR7 construct assessed as reduction in cell viability after 6 hrs by ATPlite assay. It is filed as cell-based. To be noted: human. (In general: ATP-based viability assays read luminescence as a measure of living cells.)
Data set [5] concerns the target T2, Toll-like receptor 7 (Homo sapiens) (UniProt Q9NYK1).
T2 sequence (whole entry): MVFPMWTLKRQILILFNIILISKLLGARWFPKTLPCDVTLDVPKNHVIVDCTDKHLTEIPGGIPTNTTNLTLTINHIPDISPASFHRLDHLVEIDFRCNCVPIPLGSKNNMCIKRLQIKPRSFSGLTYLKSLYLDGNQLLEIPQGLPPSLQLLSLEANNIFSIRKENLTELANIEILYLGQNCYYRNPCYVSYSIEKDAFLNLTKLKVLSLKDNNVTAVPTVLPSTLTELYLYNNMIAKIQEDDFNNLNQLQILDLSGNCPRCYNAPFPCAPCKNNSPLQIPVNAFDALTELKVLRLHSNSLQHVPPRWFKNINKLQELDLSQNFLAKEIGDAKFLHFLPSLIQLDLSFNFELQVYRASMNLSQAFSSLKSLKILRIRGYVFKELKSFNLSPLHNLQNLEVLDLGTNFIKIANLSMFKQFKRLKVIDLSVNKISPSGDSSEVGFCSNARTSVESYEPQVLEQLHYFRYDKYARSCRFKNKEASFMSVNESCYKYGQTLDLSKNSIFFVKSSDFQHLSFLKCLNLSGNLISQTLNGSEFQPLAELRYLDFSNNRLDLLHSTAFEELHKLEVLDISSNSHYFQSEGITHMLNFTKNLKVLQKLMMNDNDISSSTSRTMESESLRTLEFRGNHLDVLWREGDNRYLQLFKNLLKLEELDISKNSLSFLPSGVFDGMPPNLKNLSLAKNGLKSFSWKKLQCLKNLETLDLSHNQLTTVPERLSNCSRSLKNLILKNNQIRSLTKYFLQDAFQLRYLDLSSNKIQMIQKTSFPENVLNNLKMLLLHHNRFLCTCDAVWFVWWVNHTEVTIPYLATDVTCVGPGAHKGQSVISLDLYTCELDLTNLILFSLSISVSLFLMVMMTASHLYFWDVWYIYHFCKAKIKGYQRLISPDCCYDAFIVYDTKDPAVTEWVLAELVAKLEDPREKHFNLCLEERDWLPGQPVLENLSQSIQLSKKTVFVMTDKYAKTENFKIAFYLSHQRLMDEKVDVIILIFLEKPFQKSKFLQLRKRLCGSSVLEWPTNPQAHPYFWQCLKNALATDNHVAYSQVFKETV
Kind of data set: Agonist activity at human TLR7 expressed in HEK293 cells after 6 hrs by NFkappaB-luciferase reporter gene assay. It is filed as cell-based.

Data set [6] concerns the target T2, Toll-like receptor 7 (Homo sapiens). Kind of data set: Agonist activity at TLR7 in human PBMC assessed as suppression of HCV replicon replication in human HuH7 luc/neo cells harboring RNA encoding bicistronic expression construct comprising wild type HCV type 1b NS3-NS5B regions exposed to conditioned media from compound treated PBMCs after 24 hrs by luciferase reporter gene assay. It counts as cell-based. (In general: In antiviral work, replicon cells carry a viral genome segment that copies itself.)

In data set [7] the target is Voltage-gated inwardly rectifying potassium channel KCNH2 (Homo sapiens, UniProt Q12809). Kind of data set: Displacement of 3H-dofetilide from human ERG.
For a further data set, the species on record is Homo sapiens. Kind of data set: Selectivity index, ratio of MEC for human TLR8 to MEC for human TLR7.

Chain of Voltage-gated inwardly rectifying potassium channel KCNH2 (Q12809 whole entry): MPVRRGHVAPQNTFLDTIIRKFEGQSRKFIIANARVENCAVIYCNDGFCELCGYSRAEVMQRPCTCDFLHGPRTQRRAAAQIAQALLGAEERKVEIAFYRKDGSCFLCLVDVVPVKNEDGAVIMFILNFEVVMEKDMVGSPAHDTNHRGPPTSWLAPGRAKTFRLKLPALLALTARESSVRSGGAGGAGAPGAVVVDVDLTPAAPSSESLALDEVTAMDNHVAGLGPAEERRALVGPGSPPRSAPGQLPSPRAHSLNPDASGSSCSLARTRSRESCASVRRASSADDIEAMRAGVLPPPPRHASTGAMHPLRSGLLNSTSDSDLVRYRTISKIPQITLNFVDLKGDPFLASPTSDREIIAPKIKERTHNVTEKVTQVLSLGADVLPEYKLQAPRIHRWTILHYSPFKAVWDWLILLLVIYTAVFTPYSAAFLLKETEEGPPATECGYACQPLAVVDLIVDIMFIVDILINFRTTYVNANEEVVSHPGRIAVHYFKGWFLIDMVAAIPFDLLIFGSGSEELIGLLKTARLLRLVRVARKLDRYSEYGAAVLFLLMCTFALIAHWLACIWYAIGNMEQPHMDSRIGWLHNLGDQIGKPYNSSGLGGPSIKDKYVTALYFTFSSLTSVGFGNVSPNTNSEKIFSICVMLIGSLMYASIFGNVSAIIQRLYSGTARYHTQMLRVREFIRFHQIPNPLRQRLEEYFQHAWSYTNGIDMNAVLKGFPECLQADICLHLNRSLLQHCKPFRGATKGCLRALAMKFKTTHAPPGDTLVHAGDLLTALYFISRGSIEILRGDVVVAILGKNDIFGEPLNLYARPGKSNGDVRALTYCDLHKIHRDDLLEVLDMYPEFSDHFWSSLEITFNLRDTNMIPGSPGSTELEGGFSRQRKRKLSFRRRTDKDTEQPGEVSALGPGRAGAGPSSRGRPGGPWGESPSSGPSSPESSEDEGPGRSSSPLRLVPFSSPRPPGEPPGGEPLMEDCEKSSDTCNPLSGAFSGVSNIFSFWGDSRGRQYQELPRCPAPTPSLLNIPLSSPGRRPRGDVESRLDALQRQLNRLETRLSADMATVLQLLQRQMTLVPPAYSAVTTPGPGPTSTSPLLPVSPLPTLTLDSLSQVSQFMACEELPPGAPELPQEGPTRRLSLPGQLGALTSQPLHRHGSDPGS

For the molecule `CCCC[C@@H](CCO)Nc1nc(N)nc2c1CN(C(=O)c1csc(C)n1)CC2`, the MEC in data set [1] is 6.6 µM; in data set [5], 1 µM; in data set [6] it was 0.2 µM. Further, the metabolised at 0.25 h, 1 µM came to 71% in data set [2] and 30% in data set [3]. For the same molecule, the CC50 at 6 h in data set [4] is greater than 24 µM. The same molecule came in with an IC50 in data set [7] greater than 50 µM.
On to `CCCCNc1nc(N)nc2c1CCN(C(=O)c1ccccc1)C2`, for which the values for the MEC in data set [1] and in data set [5] were 0.8 µM and 3.9 µM, respectively. For the same molecule, in data set [4], the CC50 at 6 h was greater than 24 µM. For the same molecule, the Selectivity Index in the data set filed under Homo sapiens came out at 5.
Consider `CCC[C@@H](CCO)Nc1nc(N)nc2c1CN(C(=O)c1cccs1)CC2`, for which the MEC in data set [1] turned out to be 1.1 µM; in data set [5], 0.2 µM; in data set [6], 0.2 µM. In addition, the metabolised at 0.25 h, 1 µM came out at 73% in data set [2] and 22% in data set [3]. For the same molecule, the CC50 at 6 h in data set [4] was greater than 24 µM. In data set [7], this molecule came in with an IC50 of 7.6 µM.
As to `CCCCNc1nc(N)nc2c1CN(C(=O)c1cccs1)CC2`, the MEC in data set [1] was found to be 0.4 µM; in data set [5] it was 0.2 µM; in data set [6], 0.07 µM. In data set [2], the metabolised at 0.25 h, 1 µM came out at 99%. In addition, the CC50 at 6 h in data set [4] was greater than 24 µM.
With `CCCC[C@@H](CCO)Nc1nc(N)nc2c1CN(C(=O)c1cccs1)CC2`, the figures for the MEC in data set [1], in data set [5] and in data set [6] were 1.7 µM, 0.2 µM and 0.2 µM, respectively. For the same molecule, the results for the metabolised at 0.25 h, 1 µM in data set [2] and in data set [3] were 90% and 37%, respectively. For the same molecule, in data set [4], the CC50 at 6 h was greater than 24 µM. The molecule also came in with an IC50 in data set [7] of 6.9 µM.
On to `CCCCNc1nc(N)nc2c1CN(C(=O)c1csc(C)n1)CC2`, for which the MEC was 1.8 µM in data set [1], 2 µM in data set [5] and 0.53 µM in data set [6]. In addition, the metabolised at 0.25 h, 1 µM in data set [2] turned out to be 88%. Besides, the CC50 at 6 h in data set [4] is greater than 24 µM. Besides, in data set [7], the IC50 stood at 1.3 µM.
Regarding `CCCCNc1nc(N)nc2c1CN(C(=O)c1ccncc1)CC2`, the MEC in data set [1] is greater than 25 µM; in data set [5], greater than 25 µM; in data set [6], 3.56 µM. Besides, the CC50 at 6 h in data set [4] was greater than 24 µM.
On to `CCCCNc1nc(N)nc2c1CN(Cc1c[nH]c3ccccc13)CC2`, for which the MEC in data set [1] was 0.22 µM; in data set [5], greater than 20 µM; in data set [6] it was 0.18 µM. The CC50 at 6 h in data set [4] was greater than 24 µM.
In the case of `CCCCNc1nc(N)nc2c1CN(C(=O)c1cnc(C)cn1)CC2`, the MEC in data set [1] worked out at 6.8 µM; in data set [5] it was 11 µM; in data set [6], 1.07 µM. Besides, the CC50 at 6 h in data set [4] was greater than 24 µM.
Turning to `CCCCNc1nc(N)nc2c1CN(C(=O)c1cnccn1)CC2`, the MEC in data set [1] was 2.2 µM; in data set [5] it was 3.7 µM; in data set [6], 2.38 µM. In addition, the CC50 at 6 h in data set [4] is greater than 24 µM.
For `CCCCNc1nc(N)nc2c1CN(C(=O)c1cscn1)CC2`, in that order: 0.5 µM, 1.2 µM, 0.17 µM and greater than 24 µM.
On to `CCCCNc1nc(N)nc2c1CN(Cc1ccc(C(F)(F)F)cc1)CC2`, for which the MEC amounted to 0.23 µM in data set [1], 2.8 µM in data set [5] and 0.54 µM in data set [6]. For the same molecule, the CC50 at 6 h in data set [4] is greater than 24 µM.
Regarding `CCCCNc1nc(N)nc2c1CN(C(=O)c1csc(N)n1)CC2`, the MEC worked out at 6.9 µM in data set [1], 8 µM in data set [5] and 1.05 µM in data set [6]. Also, in data set [4], the CC50 at 6 h was greater than 24 µM.
For `CCCCNc1nc(N)nc2c1CN(Cc1cccs1)CC2`, in that order: 0.14 µM, 2.5 µM, 0.16 µM and greater than 24 µM.
On the same counts, the results for `CCCCNc1nc(N)nc2c1CN(Cc1cccnc1)CC2` are 0.13 µM, 3 µM, 0.15 µM and greater than 24 µM.
For `CCCCNc1nc(N)nc2c1CN(C(=O)c1cocn1)CC2`, in that order: 0.2 µM, 0.7 µM, 0.17 µM and greater than 24 µM.

As a reminder, the CC50 is the concentration at which the toxic effect on the cells reaches its halfway point. The term IC50 denotes the midpoint of a concentration-inhibition curve. A high value points to weaker potency in that assay.
